From the NIST ThermoML archive (doi:10.1016/j.jct.2018.05.029)
Where “and” joins values, the source holds several entries; their conditions need not be identical. Equal values may be shown once. ± gives the expanded uncertainty stated by the source.

Tests used:
[1] = Molar enthalpy of transition or fusion; conditions: Crystal; Adiabatic calorimetry

Cc1cc2ccccc2[nH]1 [2-methylindole]
Conditions	mass density	molar entropy [J/K/mol]	vapor or sublimation pressure
10 K, Crystal, Vacuum adiabatic calorimetry	–	0.7816 ± 0.025	–
20 K, Crystal, Vacuum adiabatic calorimetry	–	5.097 ± 0.058	–
30 K, Crystal, Vacuum adiabatic calorimetry	–	11.88 ± 0.075	–
40 K, Crystal, Vacuum adiabatic calorimetry	–	19.5 ± 0.1	–
50 K, Crystal, Vacuum adiabatic calorimetry	–	27.26 ± 0.13	–
60 K, Crystal, Vacuum adiabatic calorimetry	–	34.95 ± 0.16	–
70 K, Crystal, Vacuum adiabatic calorimetry	–	42.45 ± 0.18	–
80 K, Crystal, Vacuum adiabatic calorimetry	–	49.75 ± 0.21	–
90 K, Crystal, Vacuum adiabatic calorimetry	–	56.85 ± 0.32	–
100 K, Crystal, Vacuum adiabatic calorimetry	–	63.76 ± 0.34	–
120 K, Crystal, Vacuum adiabatic calorimetry	–	77.12 ± 0.37	–
140 K, Crystal, Vacuum adiabatic calorimetry	–	89.97 ± 0.41	–
160 K, Crystal, Vacuum adiabatic calorimetry	–	102.47 ± 0.44	–
180 K, Crystal, Vacuum adiabatic calorimetry	–	114.71 ± 0.48	–
200 K, Crystal, Vacuum adiabatic calorimetry	–	126.76 ± 0.52	–
220 K, Crystal, Vacuum adiabatic calorimetry	–	138.69 ± 0.55	–
240 K, Crystal, Vacuum adiabatic calorimetry	–	150.54 ± 0.58	–
260 K, Crystal, Vacuum adiabatic calorimetry	–	162.33 ± 0.62	–
280 K, Crystal, Vacuum adiabatic calorimetry	–	174.1 ± 0.66	–
298.15 K, Crystal, Vacuum adiabatic calorimetry	–	184.78 ± 0.69	–
298.15 K, Liquid, Vacuum adiabatic calorimetry	–	224.56 ± 0.81	–
300 K, Crystal, Vacuum adiabatic calorimetry	–	185.87 ± 0.69	–
300 K, Liquid, Vacuum adiabatic calorimetry	–	225.95 ± 0.81	–
320 K, Crystal, Vacuum adiabatic calorimetry	–	197.68 ± 0.73	–
320 K, Liquid, Vacuum adiabatic calorimetry	–	240.78 ± 0.86	–
331.97 K, Crystal, Vacuum adiabatic calorimetry	–	204.77 ± 0.75	–
331.97 K, Liquid, Vacuum adiabatic calorimetry	–	249.48 ± 0.89	–
339.98 K, Liquid, Inclined piston gauge	–	–	0.022 ± 0.0008 kPa
339.99 K, Liquid, Inclined piston gauge	–	–	0.022 ± 0.0008 kPa
340 K, Liquid, Vacuum adiabatic calorimetry	–	255.25 ± 0.91	–
349.98 K, Liquid, Inclined piston gauge	–	–	0.0439 ± 0.0008 kPa
359.98 K, Liquid, Inclined piston gauge	–	–	0.0849 ± 0.0009 kPa
360 K, Liquid, Vacuum adiabatic calorimetry	–	269.41 ± 0.95	–
369.98 K, Liquid, Inclined piston gauge	–	–	0.1565 ± 0.0009 kPa and 0.1564 ± 0.0009 kPa
379.98 K, Liquid, Inclined piston gauge	–	–	0.2769 ± 0.001 kPa
380 K, Liquid, Vacuum adiabatic calorimetry	–	283.28 ± 0.99	–
389.98 K, Liquid, Inclined piston gauge	–	–	0.4731 ± 0.0012 kPa
399.97 K, Liquid, Inclined piston gauge	–	–	0.7822 ± 0.0014 kPa
400 K, Liquid, Vacuum adiabatic calorimetry	–	296.88 ± 1	–
409.97 K, Liquid, Inclined piston gauge	–	–	1.255 ± 0.0018 kPa
419.96 K, Liquid, Inclined piston gauge	–	–	1.958 ± 0.0023 kPa
420 K, Liquid, Vacuum adiabatic calorimetry	–	310.21 ± 1.1	–
424.96 K, Liquid, Inclined piston gauge	–	–	2.423 ± 0.0027 kPa
424.97 K, Liquid, Inclined piston gauge	–	–	2.423 ± 0.0027 kPa
427.25 K, Liquid, Twin ebulliometer	–	–	2.666 ± 0.0079 kPa
429.96 K, Liquid, Inclined piston gauge	–	–	2.979 ± 0.0032 kPa
437.34 K, Liquid, Twin ebulliometer	–	–	4 ± 0.0079 kPa
440 K, Liquid, Vacuum adiabatic calorimetry	–	323.28 ± 1.1	–
444.87 K, Liquid, Twin ebulliometer	–	–	5.333 ± 0.008 kPa
456.04 K, Liquid, Twin ebulliometer	–	–	7.999 ± 0.008 kPa
460 K, Liquid, Small sample (50 mg) DSC	–	336.12 ± 7.8	–
464.4 K, Liquid, Twin ebulliometer	–	–	10.67 ± 0.008 kPa
471.16 K, Liquid, Twin ebulliometer	–	–	13.33 ± 0.008 kPa
478.17 K, Liquid, Twin ebulliometer	–	–	16.66 ± 0.009 kPa
480 K, Liquid, Small sample (50 mg) DSC	–	348.73 ± 8.1	–
483.99 K, Liquid, Twin ebulliometer	–	–	19.93 ± 0.009 kPa
491.65 K, Liquid, Twin ebulliometer	–	–	25.02 ± 0.009 kPa and 25.02 ± 0.01 kPa
499.35 K, Liquid, Twin ebulliometer	–	–	31.18 ± 0.011 kPa
500 K, Liquid, Small sample (50 mg) DSC	–	361.11 ± 8.4	–
507.08 K, Liquid, Twin ebulliometer	–	–	38.56 ± 0.012 kPa
514.86 K, Liquid, Twin ebulliometer	–	–	47.38 ± 0.014 kPa
520 K, Liquid, Small sample (50 mg) DSC	–	373.29 ± 8.7	–
522.68 K, Liquid, Twin ebulliometer	–	–	57.82 ± 0.016 kPa
530.55 K, Liquid, Twin ebulliometer	–	–	70.12 ± 0.018 kPa
538.45 K, Liquid, Twin ebulliometer	–	–	84.53 ± 0.02 kPa
540 K, Liquid, Small sample (50 mg) DSC	–	385.27 ± 9	–
546.4 K, Liquid, Twin ebulliometer	–	–	101.33 ± 0.023 kPa
554.39 K, Liquid, Twin ebulliometer	–	–	120.79 ± 0.03 kPa
560 K, Liquid, Small sample (50 mg) DSC	–	397.05 ± 9.2	–
562.43 K, Liquid, Twin ebulliometer	–	–	143.25 ± 0.03 kPa
570.5 K, Liquid, Twin ebulliometer	–	–	169.02 ± 0.04 kPa
578.62 K, Liquid, Twin ebulliometer	–	–	198.49 ± 0.04 kPa
580 K, Liquid, Small sample (50 mg) DSC	–	408.64 ± 9.5	–
586.77 K, Liquid, Twin ebulliometer	–	–	232.02 ± 0.04 kPa
594.97 K, Liquid, Twin ebulliometer	–	–	270.02 ± 0.05 kPa
600 K, Liquid, Small sample (50 mg) DSC	–	420.05 ± 9.8	–
620 K, Liquid, Small sample (50 mg) DSC	–	431.28 ± 10	–
640 K, Liquid, Small sample (50 mg) DSC	–	442.34 ± 10	–
660 K, Liquid, Small sample (50 mg) DSC	–	453.23 ± 11	–
680 K, Liquid, Small sample (50 mg) DSC	–	463.97 ± 11	–
700 K, Liquid, Small sample (50 mg) DSC	–	474.57 ± 11	–
788.8 K, Gas, DSC	176.5 ± 8.9 kg/m3	–	–
795.1 K, Liquid, DSC	470.4 ± 24 kg/m3	–	–
800.7 K, Liquid, DSC	433.9 ± 22 kg/m3	–	–
802.9 K, Liquid, DSC	399.3 ± 20 kg/m3	–	–
803 K, Gas, DSC	183.3 ± 12 kg/m3	–	–
803.6 K, Liquid, DSC	360.9 ± 18 kg/m3	–	–
807 K, Gas, DSC	238.4 ± 14 kg/m3	–	–
809.2 K, Gas, DSC	264.7 ± 29 kg/m3	–	–
809.6 K, Gas, DSC	268.7 ± 29 kg/m3 and 299.5 ± 38 kg/m3	–	–

101.33 kPa, Liquid
Conditions	mass density [kg/m3]
298.15 K, From volume and mass of a pressed pellet	1070 ± 43
342 K, Pycnometric method	1020 ± 20

Conditions	Triple point temperature [K]
Crystal, Adiabatic calorimetry	331.97 ± 0.039

Conditions	Molar enthalpy of transition or fusion [kcal/mol]
[1]	3.547 ± 0.00765
